In PubChem BioAssay AID1259411 (Chemical Carcinogenesis Research Information System (CCRIS), 2018):
Active and inactive are the calls of the source. The rule behind the calls is not given here.

Test system: rodent carcinogenicity bioassays, tumor incidence
Assay: CCRIS carcinogenicity studies
Conditions: Route: INHALATION
Procedure, shortened: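 Archive of carcinogenicity, mutagenicity, tumor promotion and tumor inhibition results drawn from journals, NCI reports and other sources, expert-reviewed; covers 1985-2011 and is no longer updated.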

With `C=CC=C` the carcinogen call (Species: MOUSE, Strain/Sex: B6C3F1/FEMALE, Dose: 0, 6.25, 20, 62.5, 200, 625 PPM 6 HR/D 5 D/WK FOR 2 YR (STUDY DURATION: 2 YR), Dose: 0, 6.25, 20, 62.5, 200, 625 PPM 6 HR/D 5 D/WK FOR 2 YR (STUDY DURATION: 2 YR), Tumor Site: Type of Lesion: HARDERIAN GLAND: ADENOMA OR ADENOCARCINOMA, LIVER: HEPATOCELLULAR CARCINOMA, MAMMARY GLAND: ADENOCARCINOMA, OVARIES: GRA, Tumor Site: Type of Lesion: HARDERIAN GLAND: ADENOMA OR ADENOCARCINOMA, LIVER: HEPATOCELLULAR CARCINOMA, MAMMARY GLAND: ADENOCARCINOMA, OVARIES: GRA) was “active; positive”, the carcinogen call (Species: MOUSE, Strain/Sex: B6C3F1/FEMALE, Dose: 0, 6.25, 20, 62.5, 200, 625 PPM 6 HR/D 5 D/WK FOR 2 YR (STUDY DURATION: 2 YR), Dose: 0, 6.25, 20, 62.5, 200, 625 PPM 6 HR/D 5 D/WK FOR 2 YR (STUDY DURATION: 2 YR), Tumor Site: Type of Lesion: HEMATOPOIETIC SYSTEM: LYMPHOCYTIC LYMPHOMA, LYMPHOMA, BLOOD VESSELS: HEMANGIOSARCOMA, LUNG: ALVEOLAR/BRONCHIOLAR TUMOR;, Tumor Site: Type of Lesion: HEMATOPOIETIC SYSTEM: LYMPHOCYTIC LYMPHOMA, LYMPHOMA, BLOOD VESSELS: HEMANGIOSARCOMA, LUNG: ALVEOLAR/BRONCHIOLAR TUMOR) was “active; positive” and the carcinogen call (Species: MOUSE, Strain/Sex: B6C3F1/FEMALE, Dose: 0, 6.25, 20, 62.5, 200, 625 PPM 6 HR/D 5 D/WK FOR 103 WK (STUDY DURATION: 2 YR), Dose: 0, 6.25, 20, 62.5, 200, 625 PPM 6 HR/D 5 D/WK FOR 103 WK (STUDY DURATION: 2 YR), Tumor Site: Type of Lesion: HEART: HEMANGIOSARCOMA, LUNG: ALVEOLAR/BRONCHIOLAR ADENOMA, ADENOCARCINOMA OR CARCINOMA, FORESTOMACH: SQUAMOUS CELL PAPI, Tumor Site: Type of Lesion: HEART: HEMANGIOSARCOMA, LUNG: ALVEOLAR/BRONCHIOLAR ADENOMA, ADENOCARCINOMA OR CARCINOMA, FORESTOMACH: SQUAMOUS CELL PAPI) was “active; positive”. For the same molecule, the carcinogen call (Species: MOUSE, Strain/Sex: B6C3F1/FEMALE, Dose: 0, 6.25, 20, 62.5, 200 PPM 6 HR/D 5 D/WK FOR 65 WK (STUDY DURATION: 104 WK), Dose: 0, 6.25, 20, 62.5, 200 PPM 6 HR/D 5 D/WK FOR 65 WK (STUDY DURATION: 104 WK), Tumor Site: Type of Lesion: HEART: HEMANGIOSARCOMA, LUNG: ALVEOLAR/BRONCHIOLAR TUMOR, MAMMARY GLAND: ADENOCARCINOMA, OVARY: GRANULOSA CELL TUMOR, Tumor Site: Type of Lesion: HEART: HEMANGIOSARCOMA, LUNG: ALVEOLAR/BRONCHIOLAR TUMOR, MAMMARY GLAND: ADENOCARCINOMA, OVARY: GRANULOSA CELL TUMOR) was “active; positive”, the carcinogen call (Species: MOUSE, Strain/Sex: B6C3F1/FEMALE, Dose: 0, 1000, 5000, 10000 PPM FOR 2 HR ONCE (STUDY DURATION: 2 YR), Dose: 0, 1000, 5000, 10000 PPM FOR 2 HR ONCE (STUDY DURATION: 2 YR)) was “inactive; negative” and the carcinogen call (Species: MOUSE, Strain/Sex: B6C3F1/FEMALE, Dose: 625, 1250 PPM 6 HR/D 5/WK FOR 61 WK, Tumor Site: Type of Lesion: LYMPHATIC SYSTEM: MALIGNANT LYMPHOMA, LUNG: ALVEOLAR/BRONCHIOLAR ADENOMA, CARCINOMA, MYOCARDIUM: HEMANGIOSARCOMA, FOREST, Tumor Site: Type of Lesion: LYMPHATIC SYSTEM: MALIGNANT LYMPHOMA, LUNG: ALVEOLAR/BRONCHIOLAR ADENOMA, CARCINOMA, MYOCARDIUM: HEMANGIOSARCOMA, FOREST) was “active; positive”. For the same molecule, the carcinogen call (Species: MOUSE, Strain/Sex: B6C3F1/MALE, Dose: 0, 6.25, 20, 62.5, 200, 625 PPM 6 HR/D 5 D/WK FOR 2 YR (STUDY DURATION: 2 YR), Dose: 0, 6.25, 20, 62.5, 200, 625 PPM 6 HR/D 5 D/WK FOR 2 YR (STUDY DURATION: 2 YR), Tumor Site: Type of Lesion: HEMATOPOIETIC SYSTEM: LYMPHOCYTIC LYMPHOMA, LYMPHOMA, BLOOD VESSELS: HEMANGIOSARCOMA, LUNG: ALVEOLAR/BRONCHIOLAR TUMOR;, Tumor Site: Type of Lesion: HEMATOPOIETIC SYSTEM: LYMPHOCYTIC LYMPHOMA, LYMPHOMA, BLOOD VESSELS: HEMANGIOSARCOMA, LUNG: ALVEOLAR/BRONCHIOLAR TUMOR) was “active; positive”, the carcinogen call (Species: MOUSE, Strain/Sex: B6C3F1/MALE, Dose: 0, 6.25, 20, 62.5, 200, 625 PPM 6 HR/D 5 D/WK FOR 2 YR (STUDY DURATION: 2 YR), Dose: 0, 6.25, 20, 62.5, 200, 625 PPM 6 HR/D 5 D/WK FOR 2 YR (STUDY DURATION: 2 YR), Tumor Site: Type of Lesion: PREPUTIAL GLAND: ADENOMA OR CARCINOMA, LIVER: HEPATOCELLULAR TUMOR, HARDERIAN GLAND: TUMOR, Tumor Site: Type of Lesion: PREPUTIAL GLAND: ADENOMA OR CARCINOMA, LIVER: HEPATOCELLULAR TUMOR, HARDERIAN GLAND: TUMOR) was “active; positive” and the carcinogen call (Species: MOUSE, Strain/Sex: B6C3F1/MALE, Dose: 0, 6.25, 20, 62.5, 200, 625 PPM 6 HR/D 5 D/WK FOR 103 WK (STUDY DURATION: 2 YR), Dose: 0, 6.25, 20, 62.5, 200, 625 PPM 6 HR/D 5 D/WK FOR 103 WK (STUDY DURATION: 2 YR), Tumor Site: Type of Lesion: HEART: HEMANGIOSARCOMA, LUNG: ALVEOLAR/BRONCHIOLAR ADENOMA, ADENOCARCINOMA OR CARCINOMA, FORESTOMACH: SQUAMOUS CELL PAPI, Tumor Site: Type of Lesion: HEART: HEMANGIOSARCOMA, LUNG: ALVEOLAR/BRONCHIOLAR ADENOMA, ADENOCARCINOMA OR CARCINOMA, FORESTOMACH: SQUAMOUS CELL PAPI) was “active; positive”. For the same molecule, the carcinogen call (Species: MOUSE, Strain/Sex: B6C3F1/MALE, Dose: 0, 6.25, 20, 62.5, 200 PPM, 6 HR/D 5 D/WK FOR 65 WK (STUDY DURATION: 104 WK), Dose: 0, 6.25, 20, 62.5, 200 PPM, 6 HR/D 5 D/WK FOR 65 WK (STUDY DURATION: 104 WK), Tumor Site: Type of Lesion: HEART: HEMANGIOSARCOMA, LUNG: ALVEOLAR/BRONCHIOLAR TUMOR, HARDERIAN GLAND: ADENOMA, Tumor Site: Type of Lesion: HEART: HEMANGIOSARCOMA, LUNG: ALVEOLAR/BRONCHIOLAR TUMOR, HARDERIAN GLAND: ADENOMA) was “active; positive”, the carcinogen call (Species: MOUSE, Strain/Sex: B6C3F1/MALE, Dose: 0, 200 PPM 6 HR/D 5 D/WK FOR 40 WK, 625 PPM FOR 13 WK, 312 PPM FOR 52 WK OR 625 PPM FOR 26 WK FOLLOWED BY CONTROL CHAMBE, Dose: 0, 200 PPM 6 HR/D 5 D/WK FOR 40 WK, 625 PPM FOR 13 WK, 312 PPM FOR 52 WK OR 625 PPM FOR 26 WK FOLLOWED BY CONTROL CHAMBE, Tumor Site: Type of Lesion: HEART: HEMANGIOSARCOMA, LUNG: ALVEOLAR/BRONCHIOLAR ADENOMA, ADENOCARCINOMA OR CARCINOMA, FORESTOMACH: SQUAMOUS CELL PAPI, Tumor Site: Type of Lesion: HEART: HEMANGIOSARCOMA, LUNG: ALVEOLAR/BRONCHIOLAR ADENOMA, ADENOCARCINOMA OR CARCINOMA, FORESTOMACH: SQUAMOUS CELL PAPI) was “active; positive” and the carcinogen call (Species: MOUSE, Strain/Sex: B6C3F1/MALE, Dose: 0, 1000, 5000, 10000 PPM FOR 2 HR ONCE (STUDY DURATION: 2 YR), Dose: 0, 1000, 5000, 10000 PPM FOR 2 HR ONCE (STUDY DURATION: 2 YR)) was “inactive; negative”. The carcinogen call (Species: MOUSE, Strain/Sex: B6C3F1/MALE, Dose: 625, 1250 PPM 6 HR/D 5/WK FOR 60 WK, Tumor Site: Type of Lesion: LYMPHATIC SYSTEM: MALIGNANT LYMPHOMA, LUNG: ALVEOLAR/BRONCHIOLAR ADENOMA, CARCINOMA, MYOCARDIUM: HEMANGIOSARCOMA, FOREST, Tumor Site: Type of Lesion: LYMPHATIC SYSTEM: MALIGNANT LYMPHOMA, LUNG: ALVEOLAR/BRONCHIOLAR ADENOMA, CARCINOMA, MYOCARDIUM: HEMANGIOSARCOMA, FOREST) was “active; positive”, the carcinogen call (Species: RAT, Strain/Sex: SPRAGUE-DAWLEY/FEMALE, Dose: 0, 1000, 8000 PPM 6 HR/D 5 D/WK FOR 105 WK (STUDY DURATION: 105 WK), Dose: 0, 1000, 8000 PPM 6 HR/D 5 D/WK FOR 105 WK (STUDY DURATION: 105 WK), Tumor Site: Type of Lesion: UTERUS: SARCOMA, MAMMARY GLAND: ADENOMA, ZYMBAL GLAND: CARCINOMA, THYROID GLAND: FOLLICULAR CELL ADENOMA, Tumor Site: Type of Lesion: UTERUS: SARCOMA, MAMMARY GLAND: ADENOMA, ZYMBAL GLAND: CARCINOMA, THYROID GLAND: FOLLICULAR CELL ADENOMA) was “active; positive” and the carcinogen call (Species: RAT, Strain/Sex: SPRAGUE-DAWLEY/MALE, Dose: 0, 1000, 8000 PPM 6 HR/D 5 D/WK FOR 111 WK (STUDY DURATION: 111 WK), Dose: 0, 1000, 8000 PPM 6 HR/D 5 D/WK FOR 111 WK (STUDY DURATION: 111 WK), Tumor Site: Type of Lesion: PANCREAS: ACINAR CELL ADENOMA, TESTES: LEYDIG CELL TUMOR) was “active; positive”.
